Assays:
E. coli ATCC 25922 NDM-1 = format: cell-based; conditions: in combination with EDTA 100 μM (control for inhibition of NDM-1)
Method: (§1) The in vitro susceptibility of meropenem in combination with the different compounds was evaluated against E. coli expressing NDM-1 in a broth microdilution assay. A 96-well plate was prepared with the compounds in a twofold dilution series (final concentrations 1024–0.5 mg/L) in Muller Hinton II broth (MHB-II) in combination with 2, 4, or 8 mg/L meropenem. EDTA (100 μM) was used in combination with meropenem as control for inhibition of NDM-1. Three–five colonies of E. coli ATCC 25922 NDM-1 were suspended in 0.90% saline solution and adjusted to the 0.5 McFarland turbidity standard. The bacterial suspension was diluted in MHB-II and adjusted to a final inoculum of 5 × 10^5 CFU/mL.

in vitro = format: cell-based; conditions: human; cell viability after 24 hours incubation, at least two independent experiments; read-out: Cytotoxicity IC50 in HeLa cells
Method: The cytotoxicity of phosphonamidate monoesters was evaluated against HeLa cells (ATCC-CCL-2), which were maintained in Dulbecco’s modified Eagle medium (Thermo Fisher Scientific) supplemented with 10% (v/v) fetal bovine serum (Thermo Fisher Scientific), penicillin (100 units/mL), and streptomycin (100 μg/mL, both from Sigma) at 37 °C, 5% CO2. Cells were seeded in 96-well plates (Corning, Merck) at 20 × 10^3 cells/well and incubated for 24 h (37 °C, 5% CO2). Stock solutions of the compounds were prepared at 150 mM in DMSO (Sigma), and the cells were exposed to a serial dilution and incubated for 24 h. Subsequently, the cells were washed twice with culture medium, and the PrestoBlue reagent (Thermo Fischer Scientific) was directly added to the cells for cell viability determination (1:10 dilution in culture medium). Following recommended incubation times (manufacturer’s instructions), fluorescence was measured using a Spark plate reader (Tecan, Austria) at Ex/Em 560/590 nm and corrected for background fluorescence by including control wells containing only cell culture media (no cells). Data analysis was performed using GraphPad Prism 9.0.0 (GraphPad Software, USA). At least two independent experiments were performed.
Figure S1. Cytotoxicity dose-response curves of phosphonamidate monoesters as determined in HeLa cells. The cells were treated with the compounds at the indicated concentrations, and cell viability was measured after 24 hours incubation. The following IC50 values wer e determined to be (A) 69. 2 µM (SD = 1.0) for KAT -A-109-H2, (B) 201.4 µM (SD = 4.4) for KAT -A-102-H1 and (C) 90.7 µM (SD = 1.0) for KAT -A-118-H1. All remaining compounds (D - H) had IC50 values above 500 µM. Data is shown as mean ± SD of at least two independent experiments.
*A 1h, B 1e, C 1f, D 1a, E 1b, F 1d, G 1c. […]

NDM-1 [1] = molecular target: T1, NDM-1 (Klebsiella pneumoniae, UniProt C7C422); experiment: MBL inhibition assay, purified NDM-1, imipenem hydrolysis at 300 nm; format: biochemical; conditions: for IC50 against purified NDM-1: imipenem reporter substrate, 10 nM enzyme, 2.5% DMSO, highest inhibitor concentration 800 μM, N.I. and P. not defined
T1 sequence (C7C422 29-270 limits assumed): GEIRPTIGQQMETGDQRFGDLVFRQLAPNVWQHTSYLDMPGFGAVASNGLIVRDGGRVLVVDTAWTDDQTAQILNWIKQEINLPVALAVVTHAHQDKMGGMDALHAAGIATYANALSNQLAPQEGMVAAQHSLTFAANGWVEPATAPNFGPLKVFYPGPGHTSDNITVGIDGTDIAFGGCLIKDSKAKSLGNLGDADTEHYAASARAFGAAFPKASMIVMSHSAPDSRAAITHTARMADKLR
Method: (§2) The inhibitory activities of 1a–h and 2 against the purified NDM-1, GIM-1, and VIM-2 enzymes were evaluated (IC50 data in Table 1). The inhibitory activity was measured by monitoring nitrocefin hydrolysis for VIM-2 and GIM-1 and that of imipenem for NDM-1[19] at λ 482 and 300 nm, respectively. […] This may indicate that unlike the sulfur of captopril, that of 1a and 2 might not coordinate the zinc ions in the active site. Alternatively, this may be a result of disulfide formation under the conditions of the enzyme assay. The hydrophobic 1f–h precipitated during the enzyme assay and their inhibitory activities could therefore not be reliably measured. This is not unusual as the binding cleft of MBL inhibitors is hydrophobic, and accordingly, their inhibitors typically have poor aqueous solubility.[20] The inhibitors may be solubilized by careful dilution of dimethylsulfoxide (DMSO) stock solutions; however, this was not successful for compounds 1f–h.
(§3) The inhibitory activity (IC50) of 1a–h was studied against the MBL enzymes NDM-1, GIM-1, and VIM-2. The buffer used for the studies contained 50 mM HEPES at pH 7.2, 10 μM ZnSO4, 2.5% DMSO, and 0.4 mg/mL bovine serum albumin, used as a prevention of protein unfolding and loss of activity. The enzyme concentration of NDM-1 was 10 nM, of GIM-1 1 nM, and of VIM-2 100 pM. The inhibitors were dissolved in 100% DMSO, and a twofold dilution series was made with a final 2.5% DMSO in the assay. The highest inhibitor concentration was 800 μM. The reporter substrate for VIM-2 and GIM-1 was nitrocefin, while for NDM-1 imipenem, and their absorbance (concentration) was followed at the wavelengths 482 and 300 nm, respectively. L-Captopril and EDTA-Na were used as positive and water and DMSO as negative controls. Measurements were read for 30 min at 298 K.

VIM-2 = VIM-2 (Escherichia coli, UniProt Q5U7L7); experiment: MBL inhibition assay, purified VIM-2, nitrocefin hydrolysis at 482 nm; format: biochemical; conditions: for IC50 against purified VIM-2: nitrocefin reporter substrate, 100 pM enzyme, 2.5% DMSO, highest inhibitor concentration 800 μM, N.I. and P. not defined
Method: as §2, §3

GIM-1 = GIM-1 (Pseudomonas aeruginosa, UniProt Q704V1); experiment: MBL inhibition assay, purified GIM-1, nitrocefin hydrolysis at 482 nm; format: biochemical; conditions: for IC50 against purified GIM-1: nitrocefin reporter substrate, 1 nM enzyme, 2.5% DMSO, highest inhibitor concentration 800 μM, N.I. and P. not defined
Sequence of GIM-1 (Q704V1 entry or part of it): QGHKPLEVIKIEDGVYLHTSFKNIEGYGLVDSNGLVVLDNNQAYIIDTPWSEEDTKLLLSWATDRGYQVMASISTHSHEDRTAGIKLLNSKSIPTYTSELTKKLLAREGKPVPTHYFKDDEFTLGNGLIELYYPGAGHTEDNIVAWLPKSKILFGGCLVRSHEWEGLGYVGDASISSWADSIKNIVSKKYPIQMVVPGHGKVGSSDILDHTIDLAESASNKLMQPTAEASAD
Method: as §2, §3

[2] = Solubility in the MIC assay; format: physicochemical; conditions: Muller Hinton II broth
Method: as §1
Table S2. Susceptibility assay with E. coli ATCC 25922 NDM-1
Compound Minimum inhibitory concentration (mg/L)
Meropenem:compound ratio Meropenem

NDM-1 [3] = molecular target: T1, NDM-1; experiment: 1H,15N HSQC chemical shift titration and 15N-filtered HSQC-NOESY with 15N-labeled NDM-1; format: binding
Method: As binding-induced protein NMR chemical shift changes reveal the alteration of the local environment in the vicinity of the monitored nuclei, these are commonly acquired for identification of binding clefts. We monitored the weighted chemical shift changes, Δδ1H,15N, of uniformly ^15N-enriched backbone amide functionalities upon successive additions of the 0–2.370 mM ligand using ^1H,^15N HSQC experiments (Figure 5). Following literature examples,[31] chemical shift perturbations (CSPs) were considered to be significant (SSPs) in case the observed Δδ1H,15N was greater than the population mean plus the standard deviation (μ + 1σ). […] Some minor chemical shift variations were observed upon the addition of the co-solvents, as expected,[34] whereas neither protein precipitation nor alteration of the overall structure of NDM-1 was detected (Figures S3 and S4, Supporting Information). The chemical shift changes of 234 backbone amides were monitored. […]
Additional information about the binding event was obtained from 3D-^15N-filtered HSQC-NOESY (Figure S6, Supporting Information). […] Thus, in a filtered NOE experiment, only intermolecular cross-peaks are detected. […]
For the titrations, two ^15N-labeled NDM-1 (0.25 mM) batches were prepared. […] All experiments were recorded on a Bruker 600 MHz spectrometer at 310 K equipped with a 5 mm TCI cryogenic probe. […]

[4] = Solubility / aggregation in NMR buffer; format: physicochemical; conditions: 20 mM K3PO4 aqueous buffer solution at pH 7; aggregation was observed
Method: As binding-induced protein NMR chemical shift changes reveal the alteration of the local environment in the vicinity of the monitored nuclei, these are commonly acquired for identification of binding clefts. We monitored the weighted chemical shift changes, Δδ1H,15N, of uniformly ^15N-enriched backbone amide functionalities upon successive additions of the 0–2.370 mM ligand using ^1H,^15N HSQC experiments (Figure 5). Following literature examples,[31] chemical shift perturbations (CSPs) were considered to be significant (SSPs) in case the observed Δδ1H,15N was greater than the population mean plus the standard deviation (μ + 1σ). Such chemical shift changes may directly originate from the interaction or might be indirect and thus be the result of binding-induced conformational changes. Based on its activity against NDM-1 (Table 1) and solubility, 1d was selected for detailed analysis (Figure S2, Supporting Information). […] In order to exclude aggregation of 1d, we also performed additional ^1H,^15N HSQC titration experiments using 5% DMSO or 5% ethanol (EtOH). Some minor chemical shift variations were observed upon the addition of the co-solvents, as expected,[34] whereas neither protein precipitation nor alteration of the overall structure of NDM-1 was detected (Figures S3 and S4, Supporting Information). The chemical shift changes of 234 backbone amides were monitored. […]

| SMILES | IC50 against purified NDM-1 (NDM-1 [1]) | IC50 against purified VIM-2 (VIM-2) | Solubility in MIC assay [2] | IC50 (in vitro) | IC50 against purified GIM-1 (GIM-1) | also measured |
| --- | --- | --- | --- | --- | --- | --- |
| O=C(O)CN(CCN(CC(=O)O)CC(=O)O)CC(=O)O [EDTA] | – | – | – | – | – | Minimum inhibitory concentration of meropenem (E. coli ATCC 25922 NDM-1): < 2 µg/mL |
| COP(=O)(CCSC(C)=O)NCc1ccccn1 (racemic) [1a, (R/S)-(2-(Methoxy((pyridin-2-ylmethyl)amino)phosphoryl)ethyl) Ethanethioate] | N.I. | N.I. | – | – | – | IC50 at 24 h (in vitro): > 500 µM; IC50 (GIM-1): 86 µM |
| COP(=O)(CCSC(C)=O)N(C)Cc1ccccn1 (racemic) [1b, (R/S)-(2-(Methoxy(methyl(pyridin-2-ylmethyl)amino)phosphoryl)ethyl) Ethanethioate] | – | – | – | – | – | IC50 at 24 h (in vitro): > 500 µM; IC50 (NDM-1 [1]): 356 µM; IC50 (GIM-1): 109 µM |
| CCO[P@](=O)([C@@H](CSC(C)=O)Cc1ccccc1)N(C)Cc1ccccn1 (racemic) [1f, S-((R/S)-2-((R/S)-Ethoxy(methyl(pyridin-2-ylmethyl)amino)phosphoryl)-3-phenylpropyl) Ethanethioate] | P. | P. | could not be dissolved | 90.7 µM | P. | – |
| CCOP(=O)(NCc1ccccn1)C(CSC(C)=O)Cc1ccccc1 (racemic) [1e, S-((R/S)-2-((R/S)-(2-(Ethoxy((pyridine-2-ylmethyl)amino)phosphoryl)-3-phenylpropyl) Ethanethioate] | N.I. | N.I. | could not be dissolved | 201 µM | – | – |
| COP(=O)(CCS)NCc1ccccn1 (stereo not drawn) [compound 2] | N.I. | N.I. | – | – | N.I. | – |
| COC(=O)[C@H](NP(=O)(CCSC(C)=O)OC)c1ccccc1 (mixture of isomers) [1c, Methyl (R)-2-(((R/S)-(2-(Acetylthio)ethyl) (methoxy)phosphoryl)amino)-2-phenylacetate] | N.I | – | – | > 500 µM | N.I. | IC50 (VIM-2): 500 µM |
| CCO[P@](=O)([C@@H](CSC(C)=O)Cc1ccccc1)N(Cc1ccccn1)Cc1ccccn1 (racemic) [1h, S-((R/S)-2-((R/S)-(Bis(pyridin-2-ylmethyl)amino)(ethoxy)phosphoryl)-3-phenylpropyl) Ethanethioate] | P. | P. | – | 69.2 µM | P. | – |
| CCO[P@@](=O)(N[C@@H](C(=O)OC)c1ccccc1)[C@@H](CSC(C)=O)Cc1ccccc1 (mixture of isomers) [1g, Methyl (R)-2-(((R/S)-((R/S)-1-(Acetylthio)-3-phenylpropan-2-yl) (ethoxy)phosphoryl)amino)-2-phenylacetate] | P. | P. | could not be dissolved | – | P. | – |
| COP(=O)(CCSC(C)=O)N(Cc1ccccn1)Cc1ccccn1 (racemic) [1d, (R/S)-(2-((Bis(pyridin-2-ylmethyl)amino) (methoxy)phosphoryl)ethyl) Ethanethioate] | – | N.I. | – | > 500 µM | N.I. | IC50 (NDM-1 [1]): 430 µM; Enzymatic modification of the structure by NDM-1 during the NMR studies (NDM-1 [3]): no sign for enzymatic modification; Binding to NDM-1 by chemical shift perturbation (NDM-1 [3]; 0.25 mM 15N-labeled NDM-1, up to 1:10 protein/ligand, 310 K): specific binding; Solubility [4]: limited solubility |

From publication PMC8830069, “Metallo-β-Lactamase Inhibitor Phosphonamidate Monoesters” (ACS Omega, 2022)
